Results from patent publication US20260356990A1, “HEPARIN DODECASACCHARIDES CONTAINING TWO ANTITHROMBIN-BINDING SEQUENCES AS WELL AS PREPARATION METHODS AND APPLICATIONS THEREOF” (SHANDONG UNIVERSITY, priority 2022, published 2026).

How the values were obtained:
[1] = test system: factor IIa; experiment: anti-factor IIa activity; type: biochemical; details: in vitro; data not shown
[2] = test system: factor Xa; experiment: anti-factor Xa (FXa) activity, chromogenic substrate assay kit; type: biochemical; details: in vitro; for IC50 for anti-FXa activity: mass concentration; for IC50: molar concentration
Method: The anti-factor Xa (FXa) activity of the novel heparin dodecasaccharides I-2 and I-10 prepared in the present disclosure was determined using a commercially available chromogenic substrate assay kit. […] Therefore, the novel heparin dodecasaccharides I-2 and I-10 prepared in the present disclosure are specific inhibitors of factor Xa.

[3] = test system: factor Xa; experiment: neutralization effect of protamine on the anti-factor Xa activity, chromogenic substrate assay; type: biochemical; details: in vitro, protamine at different concentrations
Method: Using the chromogenic substrate assay, the effect of different concentrations of protamine on the anti-Factor Xa (FXa) activity of the novel heparin dodecasaccharides I-2 and I-10 was evaluated. […] The in vitro anti-FXa activity of the novel heparin dodecasaccharide I-2 could be reversed by >80% with protamine, as shown in FIG. 4. Therefore, the heparin dodecasaccharides I-2 and I-10 prepared in the present disclosure are novel heparin molecules whose anticoagulant activity can be neutralized by protamine.

[4] = test system: anticoagulant effect; details: background statement; cited from earlier work

Row | IC50 for anti-FXa activity [2] | IC50 [2] | Compound | anti-factor IIa activity [1] | reversal of the anti-FXa activity by protamine (in words) [3] | neutralization of the anticoagulant effect by protamine (in words) [4]
1 | 16.77 ng/mL | 4.34 nM | CC(=O)N[C@H]1[C@@H](O[C@H]2[C@H](O)[C@@H](O)[C@H](O[C@H]3[C@H](OS(=O)(=O)O)[C@@H](NS(=O)(=O)O)[C@@H](O[C@H]4[C@H](O)[C@@H](OS(=O)(=O)O)[C@H](O[C@H]5[C@H](O)[C@@H](NS(=O)(=O)O)[C@@H](O[C@H]6[C@H](O)[C@@H](O)[C@H](Oc7ccc([N+](=O)[O-])cc7)O[C@@H]6C(=O)O)O[C@@H]5COS(=O)(=O)O)O[C@H]4C(=O)O)O[C@@H]3COS(=O)(=O)O)O[C@@H]2C(=O)O)O[C@H](COS(=O)(=O)O)[C@@H](O[C@@H]2O[C@H](C(=O)O)[C@@H](O[C@H]3O[C@H](COS(=O)(=O)O)[C@@H](O[C@@H]4O[C@@H](C(=O)O)[C@@H](O[C@H]5O[C@H](COS(=O)(=O)O)[C@@H](O[C@@H]6O[C@H](C(=O)O)[C@@H](O[C@H]7O[C@H](COS(=O)(=O)O)[C@@H](O)[C@H](O)[C@H]7NS(=O)(=O)O)[C@H](O)[C@H]6O)[C@H](OS(=O)(=O)O)[C@H]5NS(=O)(=O)O)[C@H](O)[C@H]4OS(=O)(=O)O)[C@H](O)[C@H]3NS(=O)(=O)O)[C@H](O)[C@H]2O)[C@@H]1O [Compound I-2] | no significant anti-factor IIa activity |  | 
2 | 18.03 ng/mL | 4.54 nM | CC(=O)N[C@H]1[C@@H](O[C@H]2[C@H](O)[C@@H](O)[C@H](O[C@H]3[C@H](OS(=O)(=O)O)[C@@H](NS(=O)(=O)O)[C@@H](O[C@H]4[C@H](O)[C@@H](OS(=O)(=O)O)[C@H](O[C@H]5[C@H](O)[C@@H](NS(=O)(=O)O)[C@@H](O[C@H]6[C@H](O)[C@@H](O)[C@H](Oc7ccc([N+](=O)[O-])cc7)O[C@@H]6C(=O)O)O[C@@H]5COS(=O)(=O)O)O[C@H]4C(=O)O)O[C@@H]3COS(=O)(=O)O)O[C@@H]2C(=O)O)O[C@H](COS(=O)(=O)O)[C@@H](O[C@@H]2O[C@@H](C(=O)O)[C@@H](O[C@H]3O[C@H](COS(=O)(=O)O)[C@@H](O[C@@H]4O[C@@H](C(=O)O)[C@@H](O[C@H]5O[C@H](COS(=O)(=O)O)[C@@H](O[C@@H]6O[C@H](C(=O)O)[C@@H](O[C@H]7O[C@H](COS(=O)(=O)O)[C@@H](O)[C@H](O)[C@H]7NS(=O)(=O)O)[C@H](O)[C@H]6O)[C@H](OS(=O)(=O)O)[C@H]5NS(=O)(=O)O)[C@H](O)[C@H]4OS(=O)(=O)O)[C@H](O)[C@H]3NS(=O)(=O)O)[C@H](O)[C@H]2OS(=O)(=O)O)[C@@H]1O [Compound I-10] | no significant anti-factor IIa activity | completely reversed | 
3 | 12.63 ng/mL | 7.3 nM | CO[C@H]1O[C@H](COS(=O)(=O)O)[C@@H](O[C@@H]2O[C@@H](C(=O)O)[C@@H](O[C@H]3O[C@H](COS(=O)(=O)O)[C@@H](O[C@@H]4O[C@H](C(=O)O)[C@@H](O[C@H]5O[C@H](COS(=O)(=O)O)[C@@H](O)[C@H](O)[C@H]5NS(=O)(=O)O)[C@H](O)[C@H]4O)[C@H](OS(=O)(=O)O)[C@H]3NS(=O)(=O)O)[C@H](O)[C@H]2OS(=O)(=O)O)[C@H](O)[C@H]1NS(=O)(=O)O [fondaparinux sodium (Arixtra), reference compound] |  | almost completely unneutralizable | not neutralized by protamine
